Drawing on patent US8507469B2, “Azetidin compounds suitable for treating disorders that respond to modulation of the serotonin 5-HT6 receptor” (Abbott GmbH & Co. KG, priority 2007, dated 2013), this text covers Ki for 2 molecules.

The target of one assay is histamine H1 receptor (Homo sapiens, UniProt P35367). As to the kind of experiment: H1 receptor binding assay (displacement of [3H]-pyrilamine). The following applies: CHO-K1 membranes, 1 nM [3H]-pyrilamine. As to the method:
(§1) Cells from stable clonal cell lines expressing the corresponding receptor (5-HT6, 1-adrenergic, dopamine D2 or histamine H1 receptors) were washed with PBS (w/o Ca^++, Mg^++) and harvested in PBS with 0.02% EDTA. The cells were collected by centrifugation at 500 g for 10 min. at 4° C., washed with PBS and centrifuged (500 g, 10 min. 4° C.). The pellets were stored at −80° C. until use. For membrane preparation, the thawed cell pellet was resuspended in ice-cold sucrose buffer (0.25 M sucrose, 10 mM Hepes (pH 7.4), 1 mM Phenylmethylsulfonyl fluoride (PMSF) in DMSO, […] Pepstatin-A, 3 mM EDTA, 0.025% Bacitracin) and homogenized with a Branson Sonifier W-250 (Settings: Timer 4; Output Control 3; Duty Cycle constant; 2 to 3 cycles). Cell disruption was checked with the aid of a microscope. Remaining unbroken cells were pelleted at 1.000 g for 10 min. at 4° C. The sucrose buffer supernatant was then centrifuged at 60.000 g for 1 h at 4° C. (Beckman Ultrazentrifuge XL 80). The pellet was resuspended in 30 ml ice-cold Tris buffer (20 mM TRIS (pH 7.4), […] Pepstatin A, 0.1 mM PMSF, 3 mM EDTA) by pipetting through a 10 ml serological pipet and centrifuged for 1 h at 4° C. at 60.000 g. A final resuspension was performed in a small volume of ice-cold Tris buffer (see above) by pressing through a serological pipet followed by ultrasonic treatment with a Branson Sonifier W-250 (Settings: Timer 1; Output Control 3; Duty Cycle constant; 1 cycle). Protein concentration was determined (BCA-Kit; Pierce) and aliquots stored at −80° C. or in liquid nitrogen for long-term storage.
(§2) All receptor binding experiments were carried out in the corresponding assay buffer in a total volume of 200 μl in the presence of various concentrations of test compound (10^−5 M to 10^−9 M, tenfold serial dilution, duplicate determinations). The assays were terminated by filtration on polyethylenimine (PEI 0.1% or 0.3%) presoaked Packard Unifilter Plates (GF/C or GF/B) with a Tomtec MachIII U 96well-plate harvester. After the plates had been dried for 2 h at 55° C. in a drying chamber scintillation cocktail (BetaPlate Scint; PerkinElmer) was added. Radioactivity was measured in a Microbeta Trilux two hours after the addition of the scintillation mixture. Data derived from liquid scintillation counting were analysed by iterative non-linear regression analysis with the use of the Statistical Analysis System (SAS): a program similar to “LIGAND” as described by Munson and Rodbard (Analytical Biochemistry 107, 220-239 (1980).
CHO-K1 cells stably expressing the histamine H1 receptor (Euroscreen-ES-390-C, NCBI Reference Sequence NM_000861) were cultured in RPMI1640 medium supplemented with 25 mM HEPES, 10% fetal calf serum and 1-2 mM glutamine. The membrane preparation was performed as described in section 1. […] On the day of the assay, the membranes were thawed, diluted in assay buffer (50 mM Na2HPO4, 50 mM KH2PO4, pH 7.4) to a concentration of 6 μg protein/assay and homogenized by gentle vortexing. […] The binding reaction was carried out for 50 minutes at room temperature and terminated by filtration on Packard Unifilter GF/C (0.3% PEI) plates, followed by 2 wash cycles with ice-cold assay buffer.
(§3) Data derived from liquid scintillation counting were analyzed by iterative non-linear regression analysis with the use of the Statistical Analysis System (SAS): a program similar to “LIGAND” as described by Munson and Rodbard (Anal. Biochem. 1980, 107, 220-239). Fitting was performed according to formulae described by Feldman (Anal. Biochem. 1972, 48, 317-338). IC50, nH and Ki values were expressed as geometrical mean.

A further assay has as its target T1, dopamine D2 receptor (Homo sapiens, UniProt P14416).
T1 construct: expressed in transfected cells
Kind of assay: Dopamine D2 receptor binding assay (displacement of [125I]-iodospiperone). The settings on record: HEK293 membranes, 0.01 nM [125I]-iodospiperone. As to the method: as §1, §2
HEK293 cells stably expressing the dopamine D2 receptor (NCBI Reference Sequence NM_000795) were cultured in RPMI1640 medium supplemented with 25 mM HEPES, 10% fetal calf serum and 1-2 mM glutamine. The membrane preparation was performed as described in section 1. […] On the day of the assay, the membranes were thawed, diluted in assay buffer (50 mM Tris-HCl, 120 mM NaCl, 5 mM MgCl2, 5 mM KCl, 1.5 mM CaCl2, pH 7.4) to a concentration of 15 μg protein/assay and homogenized by gentle vortexing. For inhibition studies, 0.01 nM [^125I]-iodospiperone (PerkinElmer Life Sciences, NEX284) was incubated in the presence of various concentrations of test compound in assay buffer. Non-specific binding was defined with 1 μM haloperidol. The binding reaction was carried out for 1 h at room temperature and terminated by filtration on Packard Unifilter GF/B (0.1% PEI) plates, followed by 6 wash cycles with an ice-cold 7% polyethylenglycol solution.
as §3

A further assay addresses T2, α1-adrenergic receptor (Homo sapiens, UniProt P35348).
T2 construct: expressed in transfected cells
As to the kind of experiment: α1-adrenergic receptor binding assay (displacement of [3H]-prazosine). The settings on record: CHO-K1 membranes, 0.1 nM [3H]-prazosine. As to the method:
as §1, §2
CHO-K1 cells stably expressing the 1-adrenergic receptor (NCBI Reference Sequence NM_033303) were cultured in RPMI1640 medium supplemented with 25 mM HEPES, 10% fetal calf serum and 1-2 mM glutamine. The membrane preparation was performed as described in section 1. […] On the day of the assay, the membranes were thawed, diluted in assay buffer (50 mM Tris-HCl, pH 7.4) to a concentration of 4 μg protein/assay and homogenized by gentle vortexing. […] Non-specific binding was defined with 1 μM phentolamine. The binding reaction was carried out for 1 h at room temperature and terminated by filtration on Packard Unifilter GF/C (0.1% PEI) plates, followed by 3 wash cycles with ice-cold assay buffer.
as §3
Background: In a radioligand displacement assay an active substance lowers the binding of a labelled ligand.

In the next assay the target is T3, h-5-HT6 receptor (Homo sapiens, UniProt P50406).
T3 construct: expressed in transfected cells
T3 sequence (P50406 whole entry): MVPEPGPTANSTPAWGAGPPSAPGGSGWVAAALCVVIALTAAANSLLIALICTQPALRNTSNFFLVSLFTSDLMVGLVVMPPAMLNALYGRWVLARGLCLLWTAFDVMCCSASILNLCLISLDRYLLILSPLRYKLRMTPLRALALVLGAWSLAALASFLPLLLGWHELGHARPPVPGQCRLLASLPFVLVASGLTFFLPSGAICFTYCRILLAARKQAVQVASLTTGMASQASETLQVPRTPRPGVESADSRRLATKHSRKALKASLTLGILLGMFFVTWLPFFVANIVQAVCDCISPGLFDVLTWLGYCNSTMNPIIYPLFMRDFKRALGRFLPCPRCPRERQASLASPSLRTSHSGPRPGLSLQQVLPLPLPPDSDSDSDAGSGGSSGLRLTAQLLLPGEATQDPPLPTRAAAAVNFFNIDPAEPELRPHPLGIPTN
As to the kind of experiment: 5-HT6 receptor binding assay (displacement of [3H]-LSD). The settings on record: HEK293 membranes, 1 nM [3H]-LSD. As to the method: as §1, §2
HEK293 cells stably expressing the h-5-HT6 receptor (NCBI Reference Sequence XM 001435) were cultured in RPMI1640 medium supplemented with 25 mM HEPES, 10% fetal calf serum and 1-2 mM glutamine. The membrane preparation was performed as described in section 1. […] Non-specific binding was defined with 1 μM methiothepin. The binding reaction was carried out for 3.5 h at room temperature. During the incubation, the plates were shaken on a plate shaker at 100 rpm and terminated by filtration on Packard Unifilter GF/C (0.1% PEI) plates, followed by 2 wash cycles with ice-cold 50 mM Tris-HCl, 5 mM CaCl2.
as §3

Structures can show the parent of a compound that is named as a salt.

Sequence of histamine H1 receptor (P35367 whole entry): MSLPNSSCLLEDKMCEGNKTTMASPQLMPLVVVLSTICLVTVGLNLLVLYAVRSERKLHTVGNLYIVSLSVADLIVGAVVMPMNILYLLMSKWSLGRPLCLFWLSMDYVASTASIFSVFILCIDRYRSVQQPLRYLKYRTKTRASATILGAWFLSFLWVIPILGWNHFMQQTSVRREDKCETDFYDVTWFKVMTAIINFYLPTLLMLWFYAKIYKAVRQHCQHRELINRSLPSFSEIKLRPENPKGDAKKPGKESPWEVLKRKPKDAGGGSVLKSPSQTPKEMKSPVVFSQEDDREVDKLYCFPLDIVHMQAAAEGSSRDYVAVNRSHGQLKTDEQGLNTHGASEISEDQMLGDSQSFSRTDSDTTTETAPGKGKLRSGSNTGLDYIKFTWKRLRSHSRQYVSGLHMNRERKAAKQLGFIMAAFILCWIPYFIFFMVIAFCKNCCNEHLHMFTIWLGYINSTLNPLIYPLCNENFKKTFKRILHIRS
T1 sequence (P14416 whole entry): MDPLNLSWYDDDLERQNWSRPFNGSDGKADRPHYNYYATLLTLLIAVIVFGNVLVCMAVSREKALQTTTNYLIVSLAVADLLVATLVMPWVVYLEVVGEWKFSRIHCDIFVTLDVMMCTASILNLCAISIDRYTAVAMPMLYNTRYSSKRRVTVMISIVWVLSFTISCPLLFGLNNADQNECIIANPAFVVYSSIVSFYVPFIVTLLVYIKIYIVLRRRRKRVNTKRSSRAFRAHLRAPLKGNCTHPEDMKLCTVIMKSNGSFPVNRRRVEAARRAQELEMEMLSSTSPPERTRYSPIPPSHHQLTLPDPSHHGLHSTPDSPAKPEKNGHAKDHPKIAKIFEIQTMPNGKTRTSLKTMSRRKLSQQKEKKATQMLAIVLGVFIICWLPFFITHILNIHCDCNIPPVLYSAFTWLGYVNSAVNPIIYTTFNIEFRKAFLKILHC
T2 sequence (P35348 1-475 isoform P35348-2): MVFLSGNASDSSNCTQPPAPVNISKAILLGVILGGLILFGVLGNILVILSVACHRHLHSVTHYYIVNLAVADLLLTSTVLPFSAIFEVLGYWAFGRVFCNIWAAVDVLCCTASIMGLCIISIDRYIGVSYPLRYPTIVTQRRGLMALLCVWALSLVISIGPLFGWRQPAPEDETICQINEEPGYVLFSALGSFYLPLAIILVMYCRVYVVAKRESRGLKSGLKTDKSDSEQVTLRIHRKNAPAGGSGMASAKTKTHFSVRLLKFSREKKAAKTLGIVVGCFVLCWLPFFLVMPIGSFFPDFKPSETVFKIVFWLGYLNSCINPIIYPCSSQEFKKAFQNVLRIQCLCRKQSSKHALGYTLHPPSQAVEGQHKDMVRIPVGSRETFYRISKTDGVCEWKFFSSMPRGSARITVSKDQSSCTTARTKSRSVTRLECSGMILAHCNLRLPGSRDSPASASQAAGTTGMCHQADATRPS

As a reminder, the Ki is a measure of affinity in units of concentration, obtained from inhibition or displacement. As to `O=S(=O)(c1cccc(C(F)(F)F)c1)N1CCc2cc(C3CNC3)ccc21` [compound 30, 5-Azetidin-3-yl-1-(3-trifluoromethyl-benzenesulfonyl)-2,3-dihydro-1H-indole, hydrochloride], the Ki at histamine H1 receptor was over 1000 nM; on dopamine D2 receptor, over 1000 nM; on α1-adrenergic receptor it was over 1000 nM; on h-5-HT6 receptor, under 5 nM.
For the molecule `O=S(=O)(c1ccccc1)n1ccc2cc(C3CNC3)cnc21` [compound 46, 5-Azetidin-3-yl-1-benzenesulfonyl-1H-pyrrolo[2,3-b]pyridine, formic acid salt], the inhibition constant (Ki) on histamine H1 receptor is over 10000 nM; at dopamine D2 receptor, over 10000 nM; at α1-adrenergic receptor it was over 10000 nM; on h-5-HT6 receptor, under 10 nM.
